Laboratory results as given in ChEMBL document CHEMBL4825750, “Evaluation of Elaiophylin extracted from Streptomyces hygroscopicus as a potential inhibitor of the NorA efflux protein in Staphylococcus aureus: An in vitro and in silico approach” (2021).
≈ marks a conversion by molar mass, not a printed value. Calls of active or inactive are those of the source. The rule behind the calls is not given here.

Key:
Staphylococcus aureus [1] = assay: Antibacterial activity against wild-type Staphylococcus aureus SA-1199 incubated for 24 hrs by broth microdilution method; format: functional
Staphylococcus aureus [2] = assay: Antibacterial activity against Staphylococcus aureus SA-1199B overexpressing NorA incubated for 24 hrs by broth microdilution method; format: functional
[3] = biological target: T1, Quinolone resistance protein NorA (Staphylococcus aureus) (UniProt P0A0J7); assay: Inhibition of NorA in Staphylococcus aureus SA-1199 assessed as potentiation of ethidium bromide-mediated antibacterial activity by measuring ethidium bromide MIC incubated for 24 hrs by resazurin assay
T1 sequence (whole entry): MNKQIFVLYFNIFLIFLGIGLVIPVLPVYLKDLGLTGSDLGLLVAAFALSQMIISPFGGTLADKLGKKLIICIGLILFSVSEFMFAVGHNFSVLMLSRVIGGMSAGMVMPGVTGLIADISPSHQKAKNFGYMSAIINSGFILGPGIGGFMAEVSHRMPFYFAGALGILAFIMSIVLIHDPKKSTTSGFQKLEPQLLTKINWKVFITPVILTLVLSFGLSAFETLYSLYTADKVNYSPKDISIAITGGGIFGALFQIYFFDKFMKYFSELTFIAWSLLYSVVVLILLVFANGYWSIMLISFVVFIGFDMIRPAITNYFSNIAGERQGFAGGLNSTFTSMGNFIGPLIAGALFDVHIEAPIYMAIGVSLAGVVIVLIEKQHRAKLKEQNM

[4] = biological target: T1, Quinolone resistance protein NorA (Staphylococcus aureus); assay: Inhibition of NorA in Staphylococcus aureus SA-1199 assessed as potentiation of norfloxacin-mediated antibacterial activity by measuring norfloxacin MIC incubated for 24 hrs by resazurin assay
[5] = biological target: T1, Quinolone resistance protein NorA (Staphylococcus aureus); assay: Inhibition of NorA in Staphylococcus aureus SA-1199B assessed as potentiation of norfloxacin-mediated antibacterial activity by measuring norfloxacin MIC incubated for 24 hrs by resazurin assay
[6] = biological target: T1, Quinolone resistance protein NorA (Staphylococcus aureus); assay: Inhibition of NorA in Staphylococcus aureus SA-1199B assessed as potentiation of ethidium bromide-mediated antibacterial activity by measuring ethidium bromide MIC incubated for 24 hrs by resazurin assay
Staphylococcus aureus [7] = assay: Decrease in NorA gene expression in Staphylococcus aureus SA-1199B in combination with norfloxacin by RT-qPCR; format: functional
Staphylococcus aureus [8] = assay: Decrease in NorA gene expression in Staphylococcus aureus SA-1199B by RT-qPCR; format: functional

SMILES | MIC (Staphylococcus aureus [1]) [µg/mL] | MIC (Staphylococcus aureus [2]) [µg/mL] | MIC [3] [µg/mL] | MIC [4] [µg/mL] | MIC [5] [µg/mL] | MIC [6] [µg/mL] | Activity (Staphylococcus aureus [7]) | Activity (Staphylococcus aureus [8])
CCn1cc(C(=O)O)c(=O)c2cc(F)c(N3CCNCC3)cc21 [NORFLOXACIN] | 64 (≈ 200 µM) | 256 (≈ 802 µM) | – | – | – | – | – | –
N#CC(C#N)=NNc1cccc(Cl)c1 | – | – | 4 | 8 | 8 | 8 | – | –
CC[C@@H]1[C@@H](C)O[C@@](O)([C@@H](C)[C@H](O)[C@H](C)[C@H]2OC(=O)/C=C/C=C/[C@H](C)[C@@H]([C@@H](C)[C@@H](O)[C@H](C)[C@@]3(O)C[C@@H](O[C@H]4C[C@H](O)[C@H](O)[C@H](C)O4)[C@H](CC)[C@@H](C)O3)OC(=O)/C=C/C=C/[C@@H]2C)C[C@H]1O[C@H]1C[C@H](O)[C@H](O)[C@H](C)O1 | 0.5 (≈ 0.488 µM) | 0.5 (≈ 0.488 µM) | 1 | 1 | 1 | 1 | Active | Active
